This is an account of results in article PMC11284792, “Backbone-Determined Antiarrhythmic Structure–Activity Relationships for a Mirror Image, Oligomeric Depsipeptide Natural Product” (Journal of Medicinal Chemistry, 2024).

Read-outs that look alike come from different tables or passages of the source.

The conditions of data set [1]: amide bond, 24-membered ring, 3 steps.
Data set [2] has as its target T1, RyR2 (Mus musculus, UniProt E9Q401).
T1 construct: ventricular cardiomyocytes were isolated from C57Bl/6J mice, adhered to laminin-coated glass bottom culture dishes, permeabilized with saponin; endogenous in cells; host or cells: left ventricular cardiomyocytes freshly isolated from C57BL/6J mice, saponin-permeabilized
As to conditions: 25 μM drug, normalized to vehicle (DMSO), mean ± standard deviation, ref Johnston et al. ACS Med. Chem. Lett., 2022, 13(11), 1755–1762, cited from earlier work; for Normalized Calcium Leak: CSV supplement, ent-verticilide and Series 1; for Calcium spark Amplitude (normalized to vehicle) / Calcium spark Leak (normalized to vehicle) / Calcium spark Mass (normalized to vehicle) / Calcium spark Frequency (normalized to vehicle): Supplement Table 1; for Calcium spark Amplitude (normalized to vehicle) / Calcium spark Leak (normalized to vehicle) / Calcium spark Mass (normalized to vehicle): permeabilized murine cardiomyocytes; for Calcium spark Frequency (normalized to vehicle): permeabilized murine left ventricular myocytes, 15 min incubation. On the procedure: Supplement jm4c00923_si_002.csv, table | column: Normalized Calcium Leak || page 10: Johnston et al. Supporting Information mouse variability provided by Sikkel et al.5 Bonferroni-adjusted P values are reported in the figure legends. A cutoff value of 0.05 was used as the threshold to reject the null hypothesis. Safety: No unexpected or unusually high safety hazards were encountered. Biological Experiment Data: Calcium spark parameters For all series, assay is run with 25 μM solution of drug. Values are normalized to the vehicle (DMSO) condition and reported as mean ± standard deviation. Statistical comparisons were made using a hierarchical clustering model with Bonf ...

[3] abbreviates: the molecule shown is the open-chain precursor.
Where [4] appears, read: the molecule shown is the open-chain precursor, PyBOP.

T1 sequence (E9Q401 whole entry): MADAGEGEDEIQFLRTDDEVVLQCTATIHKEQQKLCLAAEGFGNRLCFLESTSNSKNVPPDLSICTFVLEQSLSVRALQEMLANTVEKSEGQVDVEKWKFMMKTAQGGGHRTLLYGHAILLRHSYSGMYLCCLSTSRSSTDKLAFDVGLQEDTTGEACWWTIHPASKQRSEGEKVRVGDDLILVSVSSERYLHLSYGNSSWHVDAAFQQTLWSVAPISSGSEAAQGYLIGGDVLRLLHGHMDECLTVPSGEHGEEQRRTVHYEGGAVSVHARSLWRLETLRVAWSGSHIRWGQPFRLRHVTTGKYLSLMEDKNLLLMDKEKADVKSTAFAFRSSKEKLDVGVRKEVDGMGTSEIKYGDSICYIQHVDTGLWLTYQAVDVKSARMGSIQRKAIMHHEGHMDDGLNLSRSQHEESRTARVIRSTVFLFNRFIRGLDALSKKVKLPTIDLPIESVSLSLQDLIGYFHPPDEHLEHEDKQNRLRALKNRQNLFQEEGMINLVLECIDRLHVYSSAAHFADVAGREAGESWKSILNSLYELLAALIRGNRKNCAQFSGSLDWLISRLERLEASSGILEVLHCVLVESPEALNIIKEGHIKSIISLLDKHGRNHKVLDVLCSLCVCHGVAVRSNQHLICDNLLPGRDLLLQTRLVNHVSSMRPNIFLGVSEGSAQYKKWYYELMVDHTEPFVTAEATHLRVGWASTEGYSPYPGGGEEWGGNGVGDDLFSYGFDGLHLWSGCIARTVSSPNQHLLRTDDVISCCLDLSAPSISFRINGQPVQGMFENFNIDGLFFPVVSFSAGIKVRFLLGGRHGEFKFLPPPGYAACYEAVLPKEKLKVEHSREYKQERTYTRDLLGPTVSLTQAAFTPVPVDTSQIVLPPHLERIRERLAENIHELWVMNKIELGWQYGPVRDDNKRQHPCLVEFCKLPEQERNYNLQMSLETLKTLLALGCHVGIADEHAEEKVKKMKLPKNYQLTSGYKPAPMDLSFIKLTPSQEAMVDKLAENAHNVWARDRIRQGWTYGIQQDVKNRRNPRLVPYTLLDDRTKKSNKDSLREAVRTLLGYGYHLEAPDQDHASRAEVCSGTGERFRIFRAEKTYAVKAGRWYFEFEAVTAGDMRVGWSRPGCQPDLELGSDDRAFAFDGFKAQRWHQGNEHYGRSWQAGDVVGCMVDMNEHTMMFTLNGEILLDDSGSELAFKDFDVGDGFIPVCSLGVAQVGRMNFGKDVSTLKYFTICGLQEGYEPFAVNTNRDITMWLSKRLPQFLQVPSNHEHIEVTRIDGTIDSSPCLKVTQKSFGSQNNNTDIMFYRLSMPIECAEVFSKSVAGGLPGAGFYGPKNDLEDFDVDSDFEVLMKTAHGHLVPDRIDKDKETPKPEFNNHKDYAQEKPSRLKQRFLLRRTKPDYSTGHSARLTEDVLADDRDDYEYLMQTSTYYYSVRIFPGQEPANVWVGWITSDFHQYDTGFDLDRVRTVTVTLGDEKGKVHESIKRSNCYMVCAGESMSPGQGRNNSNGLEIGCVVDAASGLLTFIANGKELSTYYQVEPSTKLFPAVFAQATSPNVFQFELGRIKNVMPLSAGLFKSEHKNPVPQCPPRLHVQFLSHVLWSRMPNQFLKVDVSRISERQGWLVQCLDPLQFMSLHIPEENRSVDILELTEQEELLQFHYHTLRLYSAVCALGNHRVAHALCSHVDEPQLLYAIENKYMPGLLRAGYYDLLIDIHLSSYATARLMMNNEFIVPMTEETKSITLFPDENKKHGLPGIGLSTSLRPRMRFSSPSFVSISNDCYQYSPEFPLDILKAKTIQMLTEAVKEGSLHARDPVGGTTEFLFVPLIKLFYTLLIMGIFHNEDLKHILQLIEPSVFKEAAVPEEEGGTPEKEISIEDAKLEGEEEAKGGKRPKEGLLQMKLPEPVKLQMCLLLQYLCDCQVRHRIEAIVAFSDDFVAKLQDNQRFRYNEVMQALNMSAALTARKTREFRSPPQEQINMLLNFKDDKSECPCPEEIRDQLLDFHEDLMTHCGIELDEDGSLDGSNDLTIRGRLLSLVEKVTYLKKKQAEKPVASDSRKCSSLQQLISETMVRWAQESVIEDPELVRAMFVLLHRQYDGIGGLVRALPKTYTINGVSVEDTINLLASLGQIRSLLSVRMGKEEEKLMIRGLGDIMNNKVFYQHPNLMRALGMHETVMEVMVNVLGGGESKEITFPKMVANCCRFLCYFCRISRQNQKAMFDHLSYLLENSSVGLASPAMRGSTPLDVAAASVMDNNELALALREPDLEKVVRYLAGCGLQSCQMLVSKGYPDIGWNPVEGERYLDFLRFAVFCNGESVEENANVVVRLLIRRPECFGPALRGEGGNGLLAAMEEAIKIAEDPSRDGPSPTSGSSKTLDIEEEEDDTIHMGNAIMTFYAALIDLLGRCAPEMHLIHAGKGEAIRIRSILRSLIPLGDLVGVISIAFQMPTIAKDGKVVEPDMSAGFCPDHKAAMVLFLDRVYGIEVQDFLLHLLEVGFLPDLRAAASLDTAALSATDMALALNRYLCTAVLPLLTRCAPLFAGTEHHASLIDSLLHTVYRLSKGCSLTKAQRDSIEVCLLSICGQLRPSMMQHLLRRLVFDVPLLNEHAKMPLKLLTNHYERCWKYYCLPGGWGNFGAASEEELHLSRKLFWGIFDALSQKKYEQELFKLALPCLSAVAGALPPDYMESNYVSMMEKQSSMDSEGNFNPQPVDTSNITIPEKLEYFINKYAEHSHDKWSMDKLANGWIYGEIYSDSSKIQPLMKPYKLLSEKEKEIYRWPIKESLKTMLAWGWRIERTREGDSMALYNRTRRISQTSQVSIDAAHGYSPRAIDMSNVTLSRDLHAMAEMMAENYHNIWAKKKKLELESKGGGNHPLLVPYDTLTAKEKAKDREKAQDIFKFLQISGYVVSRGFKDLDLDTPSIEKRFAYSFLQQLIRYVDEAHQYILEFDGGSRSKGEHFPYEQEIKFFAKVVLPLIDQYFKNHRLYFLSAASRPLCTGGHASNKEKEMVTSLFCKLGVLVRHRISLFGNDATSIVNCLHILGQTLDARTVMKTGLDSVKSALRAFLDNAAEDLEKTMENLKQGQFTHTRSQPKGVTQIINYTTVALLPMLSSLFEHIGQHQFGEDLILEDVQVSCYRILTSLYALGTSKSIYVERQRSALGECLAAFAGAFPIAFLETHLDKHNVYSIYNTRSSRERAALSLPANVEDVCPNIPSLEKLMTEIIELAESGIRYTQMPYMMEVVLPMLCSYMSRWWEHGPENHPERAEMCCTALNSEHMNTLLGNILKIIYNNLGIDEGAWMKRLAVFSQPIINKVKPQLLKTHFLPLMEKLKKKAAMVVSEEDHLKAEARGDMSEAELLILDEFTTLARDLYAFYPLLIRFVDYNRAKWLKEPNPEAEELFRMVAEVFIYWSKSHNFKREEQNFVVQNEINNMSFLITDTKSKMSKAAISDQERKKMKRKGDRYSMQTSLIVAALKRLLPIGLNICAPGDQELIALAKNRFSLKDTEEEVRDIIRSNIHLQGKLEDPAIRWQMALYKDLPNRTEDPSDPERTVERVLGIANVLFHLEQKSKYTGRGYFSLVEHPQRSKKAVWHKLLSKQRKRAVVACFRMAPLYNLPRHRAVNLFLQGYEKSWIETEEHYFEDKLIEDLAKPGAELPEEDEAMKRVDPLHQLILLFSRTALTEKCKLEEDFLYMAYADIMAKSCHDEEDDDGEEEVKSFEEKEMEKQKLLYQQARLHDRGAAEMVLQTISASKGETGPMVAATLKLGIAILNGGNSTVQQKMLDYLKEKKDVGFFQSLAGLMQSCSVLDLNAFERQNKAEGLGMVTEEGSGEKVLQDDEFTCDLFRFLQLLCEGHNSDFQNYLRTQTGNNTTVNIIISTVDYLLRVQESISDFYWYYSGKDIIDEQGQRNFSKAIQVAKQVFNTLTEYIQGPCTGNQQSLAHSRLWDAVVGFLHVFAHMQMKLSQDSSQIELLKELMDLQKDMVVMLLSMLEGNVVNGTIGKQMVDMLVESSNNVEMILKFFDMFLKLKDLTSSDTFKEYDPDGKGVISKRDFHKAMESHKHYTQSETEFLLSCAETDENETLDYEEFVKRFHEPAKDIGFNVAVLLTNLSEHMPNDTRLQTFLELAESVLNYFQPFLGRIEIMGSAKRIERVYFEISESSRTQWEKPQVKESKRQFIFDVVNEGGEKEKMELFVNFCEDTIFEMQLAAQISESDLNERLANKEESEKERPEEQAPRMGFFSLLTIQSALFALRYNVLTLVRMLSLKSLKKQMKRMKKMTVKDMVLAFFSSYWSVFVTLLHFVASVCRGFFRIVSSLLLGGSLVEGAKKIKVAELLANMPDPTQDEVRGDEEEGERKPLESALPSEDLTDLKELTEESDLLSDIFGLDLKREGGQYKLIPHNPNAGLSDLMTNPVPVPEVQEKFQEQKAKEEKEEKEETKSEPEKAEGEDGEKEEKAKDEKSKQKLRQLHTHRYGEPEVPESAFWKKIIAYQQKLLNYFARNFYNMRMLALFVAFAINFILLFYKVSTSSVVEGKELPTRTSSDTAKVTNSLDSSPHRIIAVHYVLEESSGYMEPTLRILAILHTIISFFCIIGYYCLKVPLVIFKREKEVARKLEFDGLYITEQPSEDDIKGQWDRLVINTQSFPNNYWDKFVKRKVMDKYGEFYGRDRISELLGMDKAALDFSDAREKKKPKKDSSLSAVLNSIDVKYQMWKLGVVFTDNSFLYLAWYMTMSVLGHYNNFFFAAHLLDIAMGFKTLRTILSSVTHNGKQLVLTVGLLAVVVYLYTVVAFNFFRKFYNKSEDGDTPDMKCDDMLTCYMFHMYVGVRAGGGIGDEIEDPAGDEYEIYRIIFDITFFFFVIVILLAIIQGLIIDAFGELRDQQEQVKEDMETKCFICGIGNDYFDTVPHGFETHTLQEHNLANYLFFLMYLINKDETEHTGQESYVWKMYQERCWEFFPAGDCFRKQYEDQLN

For “(3R,6S,9R,12S,15R,18S,21R,24S)-3,4,7,9,10,13,15,16,19,21,22-undecamethyl-6,12,18,24-tetrapentyl-1-oxa-4,7,10,13,16,19,22-heptaazacyclotetracosan-2,5,8,11,14,17,20,23-octaone”, the ring closure, yield after HPLC in data set [1] (PyBOP/DIPEA, DMF, 5.0 mM) is 16%.

In turn, “(3R,6S,9R,12S,15R,18S,21R,24S)-3,4,9,10,13,15,16,19,21,22-decamethyl-6,12,18,24-tetrapentyl-1,7-dioxa-4,10,13,16,19,22-hexaazacyclotetracosan-2,5,8,11,14,17,20,23-octaone” displayed a ring closure, yield after HPLC in data set [1] (PyBOP/DIPEA, DMF, 2.9 mM) of 4%.

In turn, “(3R,6S,9R,12S,15R,18S,21R,24S)-3,4,9,10,15,16,19,21,22-nonamethyl-6,12,18,24-tetrapentyl-1,7,13-trioxa-4,10,16,19,22-pentaazacyclotetracosan-2,5,8,11,14,17,20,23-octaone” had a ring closure, yield after HPLC in data set [1] (PyBOP/DIPEA, DMF, 3.6 mM) of 5.1%.

On to “(3R,6S,9R,12S,15R,18S,21R,24S)-3,4,9,10,15,16,21-heptamethyl-6,12,18,24-tetrapentyl-1,7,13,19-tetraoxa-4,10,16,22-tetraazacyclotetracosan-2,5,8,11,14,17,20,23-octaone [1.1]”, for which, in data set [2], the “Normalized Calcium Leak” value is given as 1.02 ± 0.71, the “Calcium spark Amplitude (normalized to vehicle)” value is on record as 1.01 ± 0.25, the “Calcium spark Leak (normalized to vehicle)” value is listed as 1.02 ± 0.71 and the “Calcium spark Mass (normalized to vehicle)” value is reported as 0.98 ± 0.59. In addition, in data set [2], the “Calcium spark Frequency (normalized to vehicle)” value is 1.03 ± 0.27.

As to “(3R,6S,9R,12S,15R,18S,21R,24S)-3,4,9,15,16,21-hexamethyl-6,12,18,24-tetrapentyl-1,7,13,19-tetraoxa-4,10,16,22-tetraazacyclotetracosan-2,5,8,11,14,17,20,23-octaone [1.3]”, in data set [2], the “Normalized Calcium Leak” value is on record as 0.90 ± 0.60, the “Calcium spark Amplitude (normalized to vehicle)” value is 1.04 ± 0.28, the “Calcium spark Leak (normalized to vehicle)” value is recorded as 0.90 ± 0.60 and the “Calcium spark Mass (normalized to vehicle)” value was 0.91 ± 0.48. For the same substance, in data set [2], the “Calcium spark Frequency (normalized to vehicle)” value is on record as 0.96 ± 0.29.

As to “(3R,6S,9R,12S,15R,18S,21R,24S)-3,4,9,15,21-pentamethyl-6,12,18,24-tetrapentyl-1,7,13,19-tetraoxa-4,10,16,22-tetraazacyclotetracosan-2,5,8,11,14,17,20,23-octaone [1.4]”, in data set [2], the “Normalized Calcium Leak” value is reported as 0.77 ± 0.53, the “Calcium spark Amplitude (normalized to vehicle)” value was 0.93 ± 0.24, the “Calcium spark Leak (normalized to vehicle)” value is 0.77 ± 0.53 and the “Calcium spark Mass (normalized to vehicle)” value is on record as 0.84 ± 0.32. Also, the “Calcium spark Frequency (normalized to vehicle)” value in data set [2] was 0.90 ± 0.36.

In the case of “(3S,6R,9S,12R,15S,18R,21S,24R)-1,6,7,12,13,18,19,24-Octamethyl-3,9,15,21-tetrapentyl-1,4,7,10,13,16,19,22-octaazacyclotetracosan-2,5,8,11,14,17,20,23-octaone”, in data set [1] (PyBOP/DIEA, DMF, 4.6 mM, 0.0 °C), the ring closure, yield after HPLC amounted to 11%.

In turn, “H-dAla-Hhp-dAla-Hhp-dAla-Hhp-dAla-Hhp-OH” gave a ring closure, yield after HPLC in data set [1] (setting [3]) of 12%.

“H-dAla-Hhp-dAla-Hhp-dMeAla-Hhp-dMeAla-Hhp-OH?” yielded a ring closure, yield after HPLC in data set [1] (setting [4]) of 11%.

“H-dAla-Hhp-dAla-MeAhp-dAla-Hhp-dAla-MeAhp-OH?” came in with a ring closure, yield after HPLC in data set [1] (setting [3]) of 6%.

Substance “H-dAla-Hhp-dMeAla-Hhp-dMeAla-Hhp-dMeAla-Hhp-OH” came in with a ring closure, yield after HPLC in data set [1] (setting [4]) of 18%.

Consider “H-dAla-MeAhp-dAla-MeAhp-dAla-MeAhp-dAla-MeAhp-OH”, for which the ring closure, yield after HPLC in data set [1] (setting [3]) turned out to be 7%.

In data set [1] (setting [3]), “H-dAla-MeAhp-dAla-MeAhp-dMeAla-MeAhp-dMeAla-MeAhp-OH?” had a ring closure, yield after HPLC of 8%.

For “H-dAla-MeAhp-dMeAla-MeAhp-dMeAla-MeAhp-dMeAla-MeAhp-OH?”, the ring closure, yield after HPLC in data set [1] (setting [3]) came to 8%.

Substance “H-dMeAla-Ahp-dMeAla-Hhp-dMeAla-Ahp-dMeAla-Hhp-OH” gave a ring closure, yield after HPLC in data set [1] (setting [3]) of 10%.

In data set [1] (setting [3]), “H-dMeAla-Hhp-dAla-Hhp-dAla-Hhp-dAla-Hhp-OH” registered a ring closure, yield after HPLC of 23%.

As for “H-dMeAla-Hhp-dMeAla-Ahp-dMeAla-Ahp-dMeAla-Ahp-OH?”, the ring closure, yield after HPLC in data set [1] (setting [3]) was determined as 7%.

For “H-dMeAla-Hhp-dMeAla-Hhp-dMeAla-Ahp-dMeAla-Ahp-OH?”, the ring closure, yield after HPLC in data set [1] (setting [3]) was found to be 7%.

“H-dMeAla-Hhp-dMeAla-Hhp-dMeAla-Hhp-dMeAla-Ahp-OH” returned a ring closure, yield after HPLC in data set [1] (setting [3]) of 6%.

With “H-dMeAla-Hhp-dMeAla-Hhp-dMeAla-MeAhp-dMeAla-MeAhp-OH”, in data set [1] (setting [3]), the ring closure, yield after HPLC was 4%.

As for “H-dMeAla-MeAhp-dAla-MeAhp-dAla-MeAhp-dAla-MeAhp-OH”, the ring closure, yield after HPLC in data set [1] (setting [3]) was found to be 5%.

The substance “H-dMeAla-MeAhp-dAla-MeAhp-dMeAla-MeAhp-dAla-MeAhp-OH” came in with a ring closure, yield after HPLC in data set [1] (setting [3]) of 7%.

Regarding “H-dMeAla-MeAhp-dMeAla-Ahp-dMeAla-Ahp-dMeAla-Ahp-OH”, the ring closure, yield after HPLC in data set [1] (setting [3]) came to 9%.

Turning to “H-dMeAla-MeAhp-dMeAla-Ahp-dMeAla-MeAhp-dMeAla-Ahp-OH”, the ring closure, yield after HPLC in data set [1] (setting [3]) stood at 7%.

In data set [1] (setting [3]), “H-dMeAla-MeAhp-dMeAla-Hhp-dMeAla-Hhp-dMeAla-Hhp-OH” showed a ring closure, yield after HPLC of 5%.

Consider “H-dMeAla-MeAhp-dMeAla-MeAhp-dMeAla-Ahp-dMeAla-Ahp-OH?”, for which the ring closure, yield after HPLC in data set [1] (setting [3]) was 6%.

Consider “H-dMeAla-MeAhp-dMeAla-MeAhp-dMeAla-MeAhp-dMeAla-Ahp-OH?”, for which the ring closure, yield after HPLC in data set [1] (setting [3]) amounted to 5%.

On to “H-dMeAla-MeAhp-dMeAla-MeAhp-dMeAla-MeAhp-dMeAla-Hhp-OH?”, for which the ring closure, yield after HPLC in data set [1] (setting [3]) amounted to 16%.

Substance “H-dMeAla-MeAhp-dMeAla-MeAhp-dMeAla-MeAhp-dMeAla-MeAhp-OH?” came in with a ring closure, yield after HPLC in data set [1] (setting [3]) of 8%.
